Reference: patent US12600740B2, “Fluorinated N-acetyl glucosamine analogs and xylose derivatives” (UTI Limited Partnership, priority 2018, dated 2026)
“Also recorded” adds a separate entry of the source. Where a name gives a salt, the structure may show the parent alone.

Columns and labels:
mouse astrocytes = assay: Propidium iodide/calcein AM toxicity on astrocytes; assay type: cell-based; conditions: 100 μM, 48 hours
Procedure: Toxicity on astrocytes was assayed with propidium iodide/calcein AM […]. Live cells convert calcein AM into a green fluorescent product, whereas dying/dead cells are stained with propidium iodide.
96-well plates were imaged with ImageXpress® Micro Cellular Imaging and Analysis System (Molecular Devices, Sunnyvale, CA). Twelve images per well were collected at ×10 magnification. Images were processed with MetaXpress analysis software. OPC outgrowth was calculated by the MetaExpress® “neurite outgrowth” software module which uses fluorescence and user-modified parameters to document the overall extent of processes emanating from the cell soma, regardless of size of the protrusions or the number of branches. This was previously detailed elsewhere [Cua, R. C.; Lau, L. W.; Keough, M. B.; Midha, R.; Apte, S. S.; and Yong, V. W. Overcoming neurite-inhibitory chondroitin sulfate proteoglycans in the astrocyte matrix. Glia 2013, 61 (6), 972-84]. Live-dead cell assay was calculated with MetaXpress analysis software with the “multiwavelength cell scoring”, which uses fluorescent intensity to measure co-localization of calcein AM, propidium iodide, and […]. Data from the 12 images were averaged to a single data point per well, wherein the OPC outgrowth data calculated from the MetaExpress® “neurite outgrowth” readout was divided by data from the same 12 fields of cell number that was acquired through the multiwavelength cell scoring. This provided mean outgrowth per cell per well, with four well replicates per treatment. Experiments were repeated at least twice.
A mixture was created containing propidium iodide (10 μg/ml) to stain dead cells, 10 μM Calcein AM (ThermoFisher, #C3100MP) to identify live cells, and 2 drops per ml of media of NucBlue™ Live ReadyProbes™ Reagent (ThermoFisher, #R37605) to identify nuclei. The mixture was added to plate media and incubated for 20-30 minutes at 37° C. and 5% CO2 before imaging. Excitation/emission of calcein-AM (λex 490 nm, λem 515 nm), propidium iodide (λex 535 nm, λem 617 nm), and nuclear blue (λex 350 nm, λem 461 nm) was performed using ImageXpress® Micro Cellular Imaging and Analysis System (Molecular Devices, Sunnyvale, CA) and analyzed by MetaExpress multiwavelength cell scoring program.

[1] = tested on: CSPG production by astrocytes; assay: Western blot of astrocyte conditioned medium, MAB2030 (chondroitin sulfate GAG stubs); assay type: cell-based, mouse; conditions: astrocyte conditioned media, 50 μM, 48 hours
Source text: Astrocytes are major producers of CSPGs following injury in the CNS [Jones, L. L., Margolis, R. U. & Tuszynski, M. H. The chondroitin sulfate proteoglycans neurocan, brevican, phosphacan, and versican are differentially regulated following spinal cord injury. Experimental Neurology 182, 399-411 (2003); Tang, X., Davies, J. E. & Davies, S. J. Changes in distribution, cell associations, and protein expression levels of NG2, neurocan, phosphacan, brevican, versican V2, and tenascin-C during acute to chronic maturation of spinal cord scar tissue. […] The Journal of neuroscience: the official journal of the Society for Neuroscience 20, 2427-2438 (2000); McKeon, R. J., Jurynec, M. J. & Buck, C. R. The chondroitin sulfate proteoglycans neurocan and phosphacan are expressed by reactive astrocytes in the chronic CNS glial scar. The Journal of neuroscience: the official journal of the Society for Neuroscience 19, 10778-10788 (1999); Haas, C. A., Rauch, U., Thon, N., Merten, T. & Deller, T. Entorhinal cortex lesion in adult rats induces the expression of the neuronal chondroitin sulfate proteoglycan neurocan in reactive astrocytes. The Journal of neuroscience: the official journal of the Society for Neuroscience 19, 9953-9963 (1999)] and they may help drive progression of disability in a model of progressive MS [Mayo, L. et al. Regulation of astrocyte activation by glycolipids drives chronic CNS inflammation. Nature medicine 20, 1147-1156 (2014)]. Therefore astrocytes were used as model cells to determine the ability of the sugar analogs to reduce synthesis of CSPGs. Since CSPGs are exported out of cells, the conditioned media from analog-treated astrocytes were probed by Western blots (FIG. 4). We used antibodies to both the stubs of chondroitin sulfate GAGs attached to the core protein (MAB2030) and to intact 4-sulfated chondroitin sulfate sidechains (2H6) (FIG. 4a). Particularly, we used the 2H6 antibody to label intact 4-sulfated chondroitin sulfate sidechains, and the MAB2030 antibody to detect the stubs of chondroitin sulfate GAGs attached to the core protein. […] 1998, 160 (8), 3812-3819. Poole Poole C. A.; Glant T. T.; Schofield J. R.; Chondrons from articular cartilage. (IV). Immunolocalization of proteoglycan epitopes in isolated canine tibial chondrons. J. Histochem. Cytochem. 1991, 39 (9), 1175-1187].
Astrocytes were plated in uncoated 6-well plates (3 replicate wells per treatment) at 1×10^6 cells/well in mixed glial media, and incubated at 5% CO2 and 37° C. Astrocytes were treated with compounds at 50 μM in AIM-V media for 48 hours. Media was pooled from 3 replicate wells in 15 ml 100K cutoff centricon tubes (EMD Millipore, #UFC905008), which were spun on an ultracentrifuge at 5000× g for 2 cycles of 10 minutes each. When harvested, the cell lysate was kept on ice for 5 minutes with 250 μL of RIPA buffer (ThermoFisher Scientific #89900) containing proteinase inhibitor, and then collected and centrifuged at 14000 g for 5 minutes. Total protein was quantified using a Bradford assay. Conditioned media that were to be probed for chondroitin 4-sulfate GAGs (Millipore, #MAB2030) were first digested with 0.2 U/ml chondroitinase ABC for overnight at 37° C. to remove chondroitin sulfate sidechains. Blots that were to be probed with CSA (2H6, Cosmo) or CS56 (Abcam #ab11570) were not exposed to chondroitinase ABC. Samples were heat denatured with NuPAGE® LDS Sample buffer at 70° C. for 10 minutes and then loaded into 3-8% tris-acetate pre-cast gels (ThermoFisher, #EA0478BOX). The gels were electrophoresed at a constant 150 V for 90 minutes and transferred to a […] polyvinylidene fluoride membrane at a constant 250 mA for 60 minutes. The membranes were blocked for one hour with 10% skim milk in Tris-buffered saline (TBS; 0.9% NaCl, 10 mM Tris-HCl, pH 7.5) containing 0.5% Tween 20 (TBS-T). Primary antibodies were added in 3% skim milk and incubated overnight at 4° C. […]

TNFα = TNFα ELISA of LPS-stimulated bone marrow-derived macrophages; assay type: cell-based, mouse; conditions: BMDMs, 50 μM, LPS 100 ng/ml, 24 hours
Procedure: Multiple Sclerosis: Mechanisms and Immunotherapy. Neuron 97, 742-768 (2018)]. It was tested whether the sugar analogs could affect the activity of macrophages, using bone marrow-derived macrophages (BMDMs) stimulated with lipopolysaccharide (LPS, 100 ng/ml). The sugar analogs were added at 50 μM prior to LPS, and the conditioned medium was collected after 24 hours and assayed for levels of the secreted cytokine TNFα. […] Testing Toxicity of Sugar Analogs
Femurs were carefully removed from euthanized female C57BI/6 mice, and marrow was flushed into a culture plate with cold complete bone marrow growth medium (DMEM, 10% fetal bovine serum, and the supplements 1% penicillin/streptomycin, 1% glutamine, 1% non-essential amino acids, and 10% supernatant from L929 cell-line enriched in macrophage-colony stimulating factor). Cells were spun at 1100 rpm for 10 minutes, resuspended in fresh growth medium and plated at 10×10^6 cells/ml in a 10 cm culture dish. Cells were grown in DMEM with supplements and L929 supernatant for 5 days, then half the medium was replaced with fresh growth medium. On day 7 growth medium was replaced with DMEM with 10% FBS and supplements. Cells were used on day 8, and experiments were conducted in DMEM with 1% FBS and supplements unless otherwise specified.
BMDM were plated at 25,000 cells in 96-well plates in DMEM+L929 media. After 24 hours media was changed to DMEM+1% FBS. One hour later, cells were treated with […] compounds or PBS. After 1 hour LPS (final concentration 100 ng/ml) was added. Following 24 hours, conditioned media was harvested for TNFα ELISA (Thermo Scientific), which was performed according to manufacturer's instructions.

[2] = tested on: oligodendrocyte precursor cells (OPCs); assay: Growth of OPCs on astrocyte-secreted extracellular matrix; assay type: cell-based, mouse; conditions: astrocytes treated 48 hours, then removed; OPCs plated on matrix
Source text: The process of remyelination requires oligodendrocyte lineage cells to undergo process outgrowth prior to their expression of mature myelin proteins for repair. Thus, process outgrowth in culture by cells of the oligodendrocyte lineage has been used as one surrogate for myelinating potential in vivo [Keough, M. B.; Rogers, J. A.; Zhang, P.; Jensen, S. K.; Stephenson, E. L.; Chen, T.; Hurlbert, M. G.; Lau, L. W.; Rawji, K. S.; Plemel, J. R. et al. An inhibitor of chondroitin sulfate proteoglycan synthesis promotes central nervous system remyelination. Nat. Commun. 2016, 7, 11312], since an oligodendrocyte needs to elaborate multiple protrusions emanating in several directions to contact many axons, and where these processes then compact around axons to form myelin segments. The presence of CSPGs in culture impairs the process outgrowth of OPCs, and this has been linked to reduced remyelination capacity in vivo [Keough, M. B.; Rogers, J. A.; Zhang, P.; Jensen, S. K.; Stephenson, E. L.; Chen, T.; Hurlbert, M. G.; Lau, L. W.; Rawji, K. S.; Plemel, J. R. et al. An inhibitor of chondroitin sulfate proteoglycan synthesis promotes central nervous system remyelination. Nat. Commun. 2016, 7, 11312]. It was reported previously that astrocytes in culture produce a plate-bound matrix abundant in CSPGs, that is left behind once astrocytes are removed from the plate, and this CSPG-containing matrix inhibits the outgrowth of plated OPCs [Keough, M. B. et al. An inhibitor of chondroitin sulfate proteoglycan synthesis promotes central nervous system remyelination. Nature communications 7, 11312 (2016)] (FIG. 7a). Thus, astrocytes were treated with test compounds for 48 hours and they were then removed from the cell culture plate leaving only their secreted ECM behind (FIG. 7a). When OPCs were plated on the astrocyte matrix, the extent of their process outgrowth over […] of observation was inhibited (FIG. 7b). […] OPCs growing in the absence of astrocyte ECM can reach a mean outgrowth around 300 μm (FIG. 7b,c). […] These compounds were: Ac-4,4-diF-GlcNAc 16 (Ac-4,4-diF-GlcNAc), fluorosamine 3 and its O1-deacetylated analog 10 (Ac-4-F-GlcNAcOH), anomeric O-propanoate 7, anomeric O-butanoate 8 (Ac-4-F-GlcNAcOBu), and the 4-fluorinated GalNAc derivative 13 (Ac-4-F-GalNAc) (FIG. 7c).
In brief, cortices from postnatal days 1-3 mouse brains were dissociated with papain digestion and then plated as a mixed culture for 7 days in a 37° C. incubator at 8.5% CO2 whereupon OPCs and microglia tended to be loosely attached on top of a monolayer of astrocytes; the OPCs and microglia were then shaken off when placed on an orbital shaker at 220 r.p.m. at 37° C. and 5% CO2 overnight. The media containing microglia and OPCs were collected and added to a 100 mm tissue culture dish and left at 37° C. and 5% CO2 for 30 min, to allow preferential adhesion of microglia. The media were collected again, now containing OPCs, and used as the OPC-enriched isolates for experiments. For the remaining adhered cells, largely astrocytes, these were removed with 0.25% trypsin and after centrifugation and washing, these astrocytes were plated at a density of 1.0×10^5 cells in flat bottom 96-well plates coated with 10 μg/ml poly-L-lysine. Cells were grown for 7 days at 37° C. and 5% CO2 in MGM and daily media changes. Astrocytes were carefully removed with EDTA treatment (0.2 g EDTA (Na4) per liter PBS, 30 minutes at 37° C. and 5% CO2) and mechanical dislodgement with a micropipetter. The remaining ECM left behind was covered with PBS at 4° C. until OPCs were seeded. Enriched OPCs from mixed glial cultures were seeded at a density of 5-10×10^4 cells per well in OPC media and grown at 37° C. and 8.5% CO2 for 18-24 h and then were fixed with 4% ice-cold paraformaldehyde at 4° C. for 10 min, rinsed with PBS, and stored at 4° C. until immunocytochemistry. […]

| Compound | toxicity on astrocytes (propidium iodide/calcein AM) (mouse astrocytes) | effect on CSPG production by astrocytes [1] | TNFα production by LPS-stimulated macrophages (TNFα) | mean process outgrowth of OPCs on astrocyte ECM [2] | effect on CSPG production by astrocytes ([1]; sodium salt) |
| --- | --- | --- | --- | --- | --- |
| OO [Compound H2O2, reference compound] | caused a significant increase in toxicity; also recorded: caused increase in propidium iodide-positive staining | – | – | – | – |
| CC(=O)O[C@H]1OC[C@@H](F)[C@H](OC(C)=O)[C@H]1OC(C)=O [Compound 27, 1,2,3-Tri-O-acetyl-4-deoxy-4-fluoro-α-D-xylopyranose] | – | did not reduce CSPG production | enhanced TNFα levels | – | – |
| CC(=O)O[C@@H]1[C@@H](OC(C)=O)[C@H](OCCCCCCS(=O)(=O)O)OC[C@H]1OC(C)=O [Compound 23, 6-Sulfohexyl 2,3,4-tri-O-acetyl-β-D-xylopyranoside, sodium salt] | – | – | – | significantly enhanced OPC outgrowth | CSPG production was not impacted; also recorded: did not decrease CSPG production in astrocytes |
| CC(=O)NC1C(OC(C)=O)OC(C(F)F)[C@@H](OC(C)=O)C1OC(C)=O (stereo in doubt) [Compound 18, 2-acetamido-1,3,4-tri-O-acetyl-2,6-dideoxy-6,6-difluoro-α/β-D-glucopyranose] | – | did not decrease CSPG production in astrocytes | – | significantly enhanced OPC outgrowth | – |
